Data published in PubChem BioAssay (NCI).
Where “and” joins values, the source holds several entries; their conditions need not be identical. Equal entries are not always repeated.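 Results reflect a 48-hour exposure of cells in 96-well plates to compound at five concentrations. GI50: concentration for 50% inhibition of growth. TGI: total growth inhibition.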

Tested on: MDA-MB-468 breast
Test: DTP human tumour cell line panel, 48 h

First: CN1C(=O)c2cc(Cl)nc3c(NC(=O)c4cccc(Cl)c4)c(Cl)c(NC(=O)c4cccc(Cl)c4)c1c23
Second: COC(=O)c1cc(Nc2ccc(O)c3c2C(=O)c2c([N+](=O)[O-])ccc(O)c2C3=O)cc(C(=O)OC)c1
The GI50 of the first is 8.3-fold lower: 1.99 µM for the first, 16.5 µM for the second.

Going from CCOC(=O)c1[nH]c2c(c1C)-c1[nH]c(=O)c(S(=O)(=O)c3ccccc3)cc1SC2 to O=C1c2cccnc2C(=O)c2c1c(C(=O)OCCCN1CCOCC1)c1ccccn21, the GI50 falls from 54 µM to 1.39 µM (39-fold).

COc1ccc2nc3ccc(OC)cc3c(SCCCN)c2c1 and COc1cccc(-c2nn(-c3ccccc3)cc2-c2ccnc(NCCNC(=O)Nc3ccc(Cl)c(Cl)c3)c2)c1 are within 1.5-fold of each other in GI50: 1.4 µM for the first, 1.7 µM for the second.

Cc1ccc(NCSc2ccc(Cl)cc2)cc1 and Cc1nn(-c2ccccc2)c2c1C1C(=C(c3ccc(Cl)cc3)N2)C(=O)Nc2ccccc21 (centres undefined) are within 1.5-fold of each other in GI50: 2.68 µM for the first, 3.34 µM for the second.

CC[C@]12C=CCN3CC[C@]4(C(=C(C(=O)OC)C1)Nc1cc(O)ccc14)[C@@H]32 and COc1ccccc1C(=O)c1cnc(NC2CCN(S(C)(=O)=O)CC2)nc1N are within 1.5-fold of each other in GI50: 9.38 µM for the first, 7.79 µM for the second.

First: COc1ccc(/C=C\c2cc(OC)c(OC)c(OC)c2)cc1OP(=O)(O)O
Second: COc1cc(C2C3=C(COC3=O)N(CCO)c3cc4c(cc32)CCC4)cc(OC)c1O (centres undefined)
The GI50 of the first is 1.6-fold lower: 0.0543 µM for the first, 0.0891 µM for the second.

Compared with O=C1OC(c2ccc(O)cc2)(c2ccc(O)cc2)c2cccc3cccc1c23, C/C(=C(/c1ccc(O)cc1)c1ccc(OCCN2CCCC2)cc1)c1ccccc1 is 2.2-fold lower in GI50: 4.06 µM for the first, 1.84 µM for the second.

Going from COC(=O)[C@H](Cc1ccccc1)NC(=O)c1csc([C@@H](C[C@H](C(C)C)N(C)C(=O)[C@@H](NC(=O)[C@H]2CCCCN2C)C2CC2)OC(C)=O)n1 to COc1ccccc1Cn1cc2c(c1)-c1oncc1CC2, the GI50 rises from 0.0441 µM to 0.217 µM (4.9-fold).

First: COc1cc[nH]c1/C=C1\C(=O)Nc2ccc(F)c(C#CC3(O)CCOCC3)c21
Second: CC1Cc2c(N(C)C)ncnc2N(C)c2ccc(Cl)cc21 (centres undefined)
The GI50 of the first is 3.7-fold lower: 0.71 µM for the first, 2.66 µM for the second.

Compared with NS(=O)(=O)c1ccc(Nc2nc(Nc3ccccc3)nc(-n3nc(-c4ccccc4)cc3-c3ccccc3)n2)cc1, Cc1nnc([S-])s1.[Au+].c1ccc([PH+](c2ccccc2)c2ccccc2)cc1 is 1.8-fold lower in GI50: 2.31 µM for the first, 1.27 µM for the second.

Compared with N#CC1c2ccccc2-c2ccccc2N1C(=O)c1ccccc1 (centres undefined), O=C1C=C(Nc2cccc(Br)c2)c2ccccc2C1=O is 46-fold higher in GI50: 0.383 µM for the first, 17.6 µM for the second.

Going from CCN(CC)CCC(=O)Nc1ccc(Cn2nnc3c2C(=O)c2nnn(Cc4ccc(NC(=O)CCN(CC)CC)cc4)c2C3=O)cc1 to Oc1ccc(-c2nnc(SCc3ccc(O)c4ncccc34)o2)cc1, the GI50 rises from 0.17 µM to 2 µM (12-fold).

CCCC/C(=N\N=C(N)N)c1ccc(F)cc1 and Oc1ccc(CSc2nnc(-c3cnccn3)o2)c2cccnc12 are within 1.5-fold of each other in GI50: 0.59 µM for the first, 0.639 µM for the second.

Going from CCCCCCCCCCCCCCCC[N+]1(CC)CCCC1 to Cc1ccc([P+](Cc2ccc([N+](=O)[O-])cc2)(c2ccc(C)cc2)c2ccc(C)cc2)cc1, the GI50 rises from 0.184 µM to 0.66 µM (3.6-fold).

Compound Nc1ncnc2occ(-c3ccc(NC(=O)Nc4cc(C(F)(F)F)cc(C(F)(F)F)c4)cc3)c12 has a GI50 of 2.75 µM.

Compared with CN1C(=O)c2cc(Cl)nc3c(NC(=O)c4cccc(Cl)c4)c(Cl)c(NC(=O)c4cccc(Cl)c4)c1c23, COC(=O)c1cc(Nc2ccc(O)c3c2C(=O)c2c([N+](=O)[O-])ccc(O)c2C3=O)cc(C(=O)OC)c1 is 16-fold higher in TGI: 6.05 µM for the first, 98.5 µM for the second.

Compared with CCOC(=O)c1[nH]c2c(c1C)-c1[nH]c(=O)c(S(=O)(=O)c3ccccc3)cc1SC2, O=C1c2cccnc2C(=O)c2c1c(C(=O)OCCCN1CCOCC1)c1ccccn21 is lower in TGI: over 100 µM for the first, 7.1 µM for the second.

Going from COc1ccc2nc3ccc(OC)cc3c(SCCCN)c2c1 to COc1cccc(-c2nn(-c3ccccc3)cc2-c2ccnc(NCCNC(=O)Nc3ccc(Cl)c(Cl)c3)c2)c1, the TGI rises from 2.94 µM to 4.54 µM (1.5-fold).

Going from Cc1ccc(NCSc2ccc(Cl)cc2)cc1 to Cc1nn(-c2ccccc2)c2c1C1C(=C(c3ccc(Cl)cc3)N2)C(=O)Nc2ccccc21 (centres undefined), the TGI rises from 8.05 µM to 19.5 µM (2.4-fold).

CC[C@]12C=CCN3CC[C@]4(C(=C(C(=O)OC)C1)Nc1cc(O)ccc14)[C@@H]32 and COc1ccccc1C(=O)c1cnc(NC2CCN(S(C)(=O)=O)CC2)nc1N cannot be ordered by TGI: 44 µM for the first, over 25 µM for the second.

First: COc1ccc(/C=C\c2cc(OC)c(OC)c(OC)c2)cc1OP(=O)(O)O
Second: COc1cc[nH]c1/C=C1\C(=O)Nc2ccc(F)c(C#CC3(O)CCOCC3)c21
The TGI of the first is higher: over 100 µM for the first, 2.9 µM for the second.

Going from O=C1OC(c2ccc(O)cc2)(c2ccc(O)cc2)c2cccc3cccc1c23 to C/C(=C(/c1ccc(O)cc1)c1ccc(OCCN2CCCC2)cc1)c1ccccc1, the TGI falls from 21.7 µM to 4.47 µM (4.9-fold).

Going from COC(=O)[C@H](Cc1ccccc1)NC(=O)c1csc([C@@H](C[C@H](C(C)C)N(C)C(=O)[C@@H](NC(=O)[C@H]2CCCCN2C)C2CC2)OC(C)=O)n1 to COc1ccccc1Cn1cc2c(c1)-c1oncc1CC2, the TGI falls from over 25 µM to 0.697 µM.

Compared with NS(=O)(=O)c1ccc(Nc2nc(Nc3ccccc3)nc(-n3nc(-c4ccccc4)cc3-c3ccccc3)n2)cc1, Cc1nnc([S-])s1.[Au+].c1ccc([PH+](c2ccccc2)c2ccccc2)cc1 is 2.4-fold lower in TGI: 6.95 µM for the first, 2.86 µM for the second.

N#CC1c2ccccc2-c2ccccc2N1C(=O)c1ccccc1 (centres undefined) and O=C1C=C(Nc2cccc(Br)c2)c2ccccc2C1=O cannot be ordered by TGI: over 26.1 µM for the first, 83.8 µM for the second.

Compared with CCN(CC)CCC(=O)Nc1ccc(Cn2nnc3c2C(=O)c2nnn(Cc4ccc(NC(=O)CCN(CC)CC)cc4)c2C3=O)cc1, Oc1ccc(-c2nnc(SCc3ccc(O)c4ncccc34)o2)cc1 is 22-fold higher in TGI: 0.374 µM for the first, 8.06 µM for the second.

CCCC/C(=N\N=C(N)N)c1ccc(F)cc1 and Oc1ccc(CSc2nnc(-c3cnccn3)o2)c2cccnc12 are within 1.5-fold of each other in TGI: 5.81 µM for the first, 7.8 µM for the second.

Compared with CCCCCCCCCCCCCCCC[N+]1(CC)CCCC1, CC1Cc2c(N(C)C)ncnc2N(C)c2ccc(Cl)cc21 (centres undefined) is 85-fold higher in TGI: 0.799 µM for the first, 67.7 µM for the second.

Nc1ncnc2occ(-c3ccc(NC(=O)Nc4cc(C(F)(F)F)cc(C(F)(F)F)c4)cc3)c12 and Cc1ccc([P+](Cc2ccc([N+](=O)[O-])cc2)(c2ccc(C)cc2)c2ccc(C)cc2)cc1 are within 1.5-fold of each other in TGI: 7.81 µM for the first, 5.8 µM for the second.

For Cn1c(=O)n(-c2ccc(C(C)(C)C#N)cc2)c2c3cc(-c4cnc5ccccc5c4)ccc3ncc21, the GI50 was 0.0118 µM and 0.00531 µM and < 0.0105 µM.

With Cn1c(=O)n(-c2ccc(C(C)(C)C#N)cc2)c2c3cc(-c4cnc5ccccc5c4)ccc3ncc21 the TGI was 0.0505 µM and 0.0285 µM and 0.0642 µM.
